Values joined by “and” are separate entries in the source; they are usually repeats but may differ in a detail not shown here. Equal values may be shown once. Inconclusive results and toxic doses are left out. How the source made its calls: active means survival T/C of 150% or more; inactive means T/C below 125% in these data.
Test system: P388 leukemia ip, CD2F1 mice, survival T/C
Test: NCI In Vivo Anticancer Drug Screen. Data for tumor model P388 Leukemia (intraperitoneal) in CD2F1 (CDF1) mice
Conditions: endpoint: median survival time, higher = longer survival
Outline: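 Mice carrying the transplanted tumor received test compound or vehicle. Survival was recorded in each group, and the value is the treated-group measurement divided by that of the vehicle-treated control group.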

[1] = dose: 60.0 mg/kg/injection, schedule: Q01DX005 (ip), vehicle: Klucel (hydroxypropylcellulose) (HPC)
[2] = dose: 120.0 mg/kg/injection, schedule: Q01DX005 (ip), vehicle: Klucel (hydroxypropylcellulose) (HPC)
[3] = dose: 240.0 mg/kg/injection, schedule: Q01DX005 (ip), vehicle: Klucel (hydroxypropylcellulose) (HPC)
[4] = dose: 50.0 mg/kg/injection, schedule: Q01DX001 (ip), vehicle: Klucel (hydroxypropylcellulose) (HPC)
[5] = dose: 100.0 mg/kg/injection, schedule: Q01DX001 (ip), vehicle: Klucel (hydroxypropylcellulose) (HPC)
[6] = dose: 200.0 mg/kg/injection, schedule: Q01DX001 (ip), vehicle: Klucel (hydroxypropylcellulose) (HPC)
[7] = dose: 50.0 mg/kg/injection, schedule: Q01DX005 (ip), vehicle: Klucel (hydroxypropylcellulose) (HPC)
[8] = dose: 100.0 mg/kg/injection, schedule: Q01DX005 (ip), vehicle: Klucel (hydroxypropylcellulose) (HPC)
[9] = dose: 200.0 mg/kg/injection, schedule: Q01DX005 (ip), vehicle: Klucel (hydroxypropylcellulose) (HPC)
[10] = dose: 6.25 mg/kg/injection, schedule: Q01DX009 (ip), vehicle: saline
[11] = dose: 50.0 mg/kg/injection, schedule: Q01DX009 (ip), vehicle: saline with Tween-80
[12] = dose: 100.0 mg/kg/injection, schedule: Q01DX009 (ip), vehicle: saline with Tween-80
[13] = dose: 200.0 mg/kg/injection, schedule: Q01DX009 (ip), vehicle: saline with Tween-80
[14] = dose: 50.0 mg/kg/injection, schedule: Q01DX001 (ip), vehicle: saline with Tween-80
[15] = dose: 100.0 mg/kg/injection, schedule: Q01DX001 (ip), vehicle: saline with Tween-80
[16] = dose: 200.0 mg/kg/injection, schedule: Q01DX001 (ip), vehicle: saline with Tween-80
[17] = dose: 400.0 mg/kg/injection, schedule: Q01DX001 (ip), vehicle: saline with Tween-80

Measured: T/C

CCc1nc2c(Br)c3oc(CC)nc3c(C)c2o1
inactive: [1] 97 % of control | [2] 95 % of control | [3] 91 % of control

C=C1C(=O)O[C@H]2[C@H]1C[C@@H](O)[C@@]1(C)[C@@H](OC(=O)/C(C)=C/C)C[C@@H]3O[C@]3(C)[C@H]21
inactive: dose: 9.0 mg/kg/injection, schedule: Q01DX005 (ip), vehicle: Klucel + Tween-80 105 % of control | dose: 18.0 mg/kg/injection, schedule: Q01DX005 (ip), vehicle: Klucel + Tween-80 106 % of control | dose: 36.0 mg/kg/injection, schedule: Q01DX005 (ip), vehicle: Klucel + Tween-80 105 % of control | dose: 72.0 mg/kg/injection, schedule: Q01DX005 (ip), vehicle: Klucel + Tween-80 110 % of control

O=N[O-].O=N[O-].[Co].[NH-]CC[NH-].[NH-]CC[NH-]
inactive: dose: 6.25 mg/kg/injection, schedule: Q04DX003 (ip), vehicle: water 98 % of control | dose: 12.5 mg/kg/injection, schedule: Q04DX003 (ip), vehicle: distilled water + Tween-80 96 % of control | dose: 12.5 mg/kg/injection, schedule: Q04DX003 (ip), vehicle: water 101 % of control | dose: 25.0 mg/kg/injection, schedule: Q04DX003 (ip), vehicle: water 102 % of control | dose: 50.0 mg/kg/injection, schedule: Q04DX003 (ip), vehicle: distilled water + Tween-80 99 % of control | dose: 50.0 mg/kg/injection, schedule: Q04DX003 (ip), vehicle: water 96 % of control | dose: 100.0 mg/kg/injection, schedule: Q04DX003 (ip), vehicle: distilled water + Tween-80 108 % of control

CC/C(=C(/CC)c1ccc(OCC(=O)N/N=C2\CCC3C4CCc5cc(O)ccc5C4=CCC23C)cc1)c1ccc(OCC(=O)N/N=C2/CCC3C4CCc5cc(O)ccc5C4=CCC23C)cc1 (stereo not given)
inactive: [4] 96 % of control | [5] 95 % of control | [6] 87 % of control

COc1ccc2c3c([nH]c2c1)[C@H]1C[C@H]2[C@H](C[C@@H](O)[C@H](OC)[C@H]2C(=O)O)CN1CC3
inactive: [7] 100 % of control | [8] 100 % of control | [9] 101 % of control

ClCCCCOCBr
inactive: dose: 60.0 mg/kg/injection, schedule: Q01DX005 (ip), vehicle: saline 93 % of control | dose: 240.0 mg/kg/injection, schedule: Q01DX005 (ip), vehicle: saline 87 % of control

CC(C)(C)C(=O)C=C(C(F)(F)F)C(F)(F)F
inactive: [10] 91 % of control | dose: 12.5 mg/kg/injection, schedule: Q01DX009 (ip), vehicle: saline 86 % of control | dose: 25.0 mg/kg/injection, schedule: Q01DX009 (ip), vehicle: saline 113 % of control

NC(=S)c1ccc(N=Cc2c(O)ccc3ccccc23)cc1
inactive: [4] 100 % of control | [5] 94 % of control | [6] 97 % of control

O=c1oc(-c2cccc([N+](=O)[O-])c2)ns1
inactive: dose: 6.25 mg/kg/injection, schedule: Q01DX009 (ip), vehicle: Klucel (hydroxypropylcellulose) (HPC) 101 % of control | dose: 12.5 mg/kg/injection, schedule: Q01DX009 (ip), vehicle: Klucel (hydroxypropylcellulose) (HPC) 97 % of control | dose: 25.0 mg/kg/injection, schedule: Q01DX009 (ip), vehicle: Klucel (hydroxypropylcellulose) (HPC) 109 % of control

CN1CCC2(C)CC(Br)(Cc3ccccc32)C1Cl (stereo not given)
inactive: [7] 108 % of control | [8] 106 % of control

CCCC/C(=N\NC(N)=NC)c1ccccc1
inactive: dose: 25.0 mg/kg/injection, schedule: Q04DX002 (ip), vehicle: saline with Tween-80 99 % of control | dose: 50.0 mg/kg/injection, schedule: Q04DX002 (ip), vehicle: saline with Tween-80 100 % of control

CC1CCC[N+](C)([B-](F)(F)F)C1 (stereo not given)
inactive: dose: 50.0 mg/kg/injection, schedule: Q01DX005 (ip), vehicle: saline 100 % of control | dose: 100.0 mg/kg/injection, schedule: Q01DX005 (ip), vehicle: saline 100 % of control

CC12CCC(C(=O)C1=O)C2(C)C (stereo not given)
inactive: [11] 102 % of control | [12] 93 % of control | [13] 95 % of control | dose: 400.0 mg/kg/injection, schedule: Q01DX009 (ip), vehicle: saline with Tween-80 97 % of control

C=CC1(C)OC(=O)c2cc(C)c(OC)cc21 (stereo not given)
inactive: [14] 100 % of control | [15] 100 % of control | [16] 95 % of control | [17] 94 % of control

Cc1c2ccncc2c(C)c2c1[nH]c1ccc(F)cc12
inactive: dose: 16.25 mg/kg/injection, schedule: Q04DX002 (ip), vehicle: Klucel (hydroxypropylcellulose) (HPC) 106 % of control | dose: 32.5 mg/kg/injection, schedule: Q04DX002 (ip), vehicle: Klucel (hydroxypropylcellulose) (HPC) 106 % of control

O=C(CN1CCCCC1)Nc1ccc(I)cc1
inactive: [11] 104 % of control | [12] 107 % of control | [13] 114 % of control

NNC(=O)CCc1c[nH]c2ccccc12
inactive: [14] 100 % of control | [15] 96 % of control | [16] 111 % of control | [17] 111 % of control

CCC[CH2][Sn]([CH2]CCC)[O][Sn]([Cl])([CH2]CCC)[CH2]CCC
inactive: dose: 0.79 mg/kg/injection, schedule: Q01DX009 (ip), vehicle: saline 100 % of control | dose: 1.56 mg/kg/injection, schedule: Q01DX009 (ip), vehicle: saline with Tween-80 100 % of control | dose: 1.56 mg/kg/injection, schedule: Q01DX009 (ip), vehicle: saline 100 % of control | dose: 3.12 mg/kg/injection, schedule: Q01DX009 (ip), vehicle: saline with Tween-80 101 % of control and 113 % of control | dose: 3.12 mg/kg/injection, schedule: Q01DX009 (ip), vehicle: saline 97 % of control | dose: 6.25 mg/kg/injection, schedule: Q01DX009 (ip), vehicle: saline with Tween-80 100 % of control | [10] 88 % of control

C1CC[N-]CC1.C1CC[N-]CC1.[Co].[N-]=C=S.[N-]=C=S
inactive: [15] 100 % of control

O=c1[nH]nc2ccc(n[nH]c1=O)c1ccccc21
inactive: dose: 3.13 mg/kg/injection, schedule: Q01DX005 (ip), vehicle: saline with Tween-80 104 % of control | dose: 6.25 mg/kg/injection, schedule: Q01DX005 (ip), vehicle: saline with Tween-80 107 % of control | dose: 12.5 mg/kg/injection, schedule: Q01DX005 (ip), vehicle: saline with Tween-80 99 % of control and 103 % of control | dose: 25.0 mg/kg/injection, schedule: Q01DX005 (ip), vehicle: saline with Tween-80 101 % of control | dose: 50.0 mg/kg/injection, schedule: Q01DX005 (ip), vehicle: saline with Tween-80 104 % of control and 107 % of control

CC(=O)OC(c1ccccc1)N(Cc1ccccc1)N=O (stereo not given)
inactive: dose: 12.5 mg/kg/injection, schedule: Q01DX009 (ip), vehicle: distilled water + Tween-80 111 % of control | dose: 25.0 mg/kg/injection, schedule: Q01DX009 (ip), vehicle: distilled water + Tween-80 111 % of control | dose: 50.0 mg/kg/injection, schedule: Q01DX009 (ip), vehicle: distilled water + Tween-80 118 % of control | dose: 100.0 mg/kg/injection, schedule: Q01DX009 (ip), vehicle: distilled water + Tween-80 117 % of control | dose: 200.0 mg/kg/injection, schedule: Q01DX009 (ip), vehicle: distilled water + Tween-80 119 % of control

COc1ccc(-c2c(N)cnc(C)c2C)c(OC)c1OC
inactive: dose: 12.5 mg/kg/injection, schedule: Q01DX009 (ip), vehicle: other 107 % of control | dose: 25.0 mg/kg/injection, schedule: Q01DX009 (ip), vehicle: other 107 % of control | dose: 50.0 mg/kg/injection, schedule: Q01DX009 (ip), vehicle: other 99 % of control | dose: 100.0 mg/kg/injection, schedule: Q01DX009 (ip), vehicle: other 87 % of control

Cc1ccc(S(=O)(=O)OCCOc2ccc3ccccc3c2-c2c(OCCOc3ccc4ccccc4c3-c3c(OCCOS(=O)(=O)c4ccc(C)cc4)ccc4ccccc34)ccc3ccccc23)cc1
inactive: [15] 101 % of control | [16] 97 % of control | [17] 97 % of control

O=C(O)CNC(=O)/C=C/c1ccc(O)c(O)c1
inactive: [7] 114 % of control | [8] 100 % of control | [9] 100 % of control

CCOc1c(N=Nc2ccc(OC)cc2)c(C)nn1C(=S)S
inactive: [1] 115 % of control | [2] 112 % of control | [3] 100 % of control

From PubChem BioAssay AID330 (DTP/NCI, 2004)
